Read-outs that look alike come from different tables or passages of the source.
Columns and labels:
Arthritis = conditions: method No 4
Protocol: (§1) The pulse oxygen therapy as described therein for treating neurodegenerative diseases (PD, AD, ALS, MS, Arthritis, Lymphedema and Depression) to patients with mild, moderate, severe, or critical conditions may be applied as follow: • 1. […] Patients must have comfortable accommodation (temperature, illumination and sanitary conditions). • 2. As prophylactic treatment (elder patients and/or with chronic diseases) treat patients with 6 l/min oxygen flow for 60 min once a day during 5 days. • 3. As treatment for patients with mild disease (initial symptoms) treat patients with 6 l/min oxygen flow for 60 min once a day during 10 days. • 4. As treatment for patients with moderate disease treat patients with 6 l/min oxygen flow for 60 min twice a day during 10 days. • 5. As treatment for patients with severe disease treat patients with 6 l/min oxygen flow for 60 min four time a day during 10 days. • 6. As treatment for patients with critical disease treat patients with 6 l/min oxygen flow for 60 min every 3 hours during 10 days.

Depression = conditions: method No 4
Protocol: as §1

Lymphedema = conditions: method No 4
Protocol: as §1

Parkinson Disease = system: Parkinson Disease
Protocol: as §1

[1] = for oxygen transported to the tissues: cardiac flow of 1 l/min
Description: At sea level, (non humidified) room air contains 21% O2 which translates into an oxygen partial pressure of 160 mm Hg [0.21*760 mm Hg)]. However, the body mean tissue oxygen levels are much lower than this level. Alveolar air contains 14% oxygen (106 mm Hg), arterial oxygen concentration is 12% (91 mm Hg), venous oxygen levels are 5.3% (40 mm Hg), and mean tissue intracellular oxygen concentration is only 3% (22 mm Hg (Guyton, and Hall, 1996). Furthermore, direct microelectrode measurements of tissue O2 reveal that parts of the brain normally experience O2 levels considerably lower than total body mean tissue oxygen levels, reflecting the high oxygen utilization in brain. These studies also highlight considerable regional variation in average brain oxygen levels (Table 1) that have been attributed to local differences in capillary density. Mean brain tissue oxygen concentration in adult rates is 1.5% (Silver and Erecinska, 1988), and mean fetal sheep brain oxygen tension has also been estimated at 1.6% (Koos and Power, 1987).
If we inspire air at normal pressure of 760 mm Hg (O221%) alveolar oxygen content will be 14% (106 mm Hg) and arterial oxygen content 12% (91 mm Hg). However arterial oxygen content includes oxygen content in the Hemoglobin plus oxygen absorbed in the plasma. (Mathews and Van Holde, 2002)
Oxygen content in the Hemoglobin (ml/dL)=Hb (g/dL)*% Sat.*[…]
At 100 mmHg oxygen pressure and 100% Hemoglobin saturation Oxygen content in the arterial blood is 20.7 ml/dL
If we consider a normal cardiac flow of 1 l/min, oxygen transported to the tissues would be […] or 0.924 mol-g of oxygen (5.57*10^23 molecules of oxygen/min.).
If we inspire oxygen enriched air of 31% O2, arterial pressure of oxygen would be (31/21)*100=147 mm Hg
Also oxygen content at the brain tissue will be:
Oxygen content in the arterial blood=Oxygen in Hemoglobin+Oxygen absorbed in the plasma
If we inspire oxygen of 95% O2, arterial pressure of oxygen would be (95/21)*100=452 mm Hg

[2] = system: PD, AD, ALS, Arthritis, Lymphedema, and Depression patients
Protocol: In our therapy the oxygen pulses are administered in consonance with the advance of the neurodegenerative diseases (PD, AD, ALS, MS, Arthritis, Lymphedema and Depression) as described as follow: • a. At the beginning of the neurodegenerative disease with the apparition of the first symptoms using procedure 1 or 2 twice a day for 5 days. • b. When the neurodegenerative disease has been detected, with a medical diagnostic, using procedure 1 or 2 four times a day for 10 days. • c. With an advanced neurodegenerative disease using procedure 1 or 2 eight times a day for 10 days

additional flow of oxygen ([1]; 31% O2 inspired): 0.15 L/min
increase of the oxygen transport to the tissues ([1]; 31% O2 inspired): 0.72%
Oxygen content in the arterial blood ([1]; 31% O2 inspired, 147 mm Hg): 20.85 ml/dL
oxygen transported to the tissues ([1]; 31% O2 inspired): 20.85 l Oxygen/min
Oxygen at the brain level, Cortex (gray) ([1]; 31% oxygen inspired): 3.69-7.79 % O2
Oxygen at the brain level, Cortex (white) ([1]; 31% oxygen inspired): 1.17-3.0 % O2
Oxygen at the brain level, Hippocampus ([1]; 31% oxygen inspired): 3.8-5.7 % O2
Oxygen at the brain level, Hypothalamus ([1]; 31% oxygen inspired): 2.0-3.0 % O2
Oxygen at the brain level, Pons, fornix ([1]; 31% oxygen inspired): 0.14-0.58 % O2
additional flow of oxygen ([1]; 95% O2 inspired): 1.4 L/min
increase of oxygen flow to the tissues ([1]; 95% O2 inspired): 6.76%
Oxygen content in the arterial blood ([1]; 95% O2 inspired, 452 mm Hg): 21.80 ml/dL
oxygen transported to the tissues ([1]; 95% O2 inspired): 21.80 l Oxygen/min
Oxygen at the brain level, Cortex (gray) ([1]; 95 % oxygen inspired): 11.3-23.8 % O2
Oxygen at the brain level, Cortex (white) ([1]; 95 % oxygen inspired): 3.58-9.18 % O2
Oxygen at the brain level, Hippocampus ([1]; 95 % oxygen inspired): 11.6-17.4 % O2
Oxygen at the brain level, Hypothalamus ([1]; 95 % oxygen inspired): 6.12-9.18 % O2
Oxygen at the brain level, Pons, fornix ([1]; 95 % oxygen inspired): 0.42-1.77 % O2
arterial pressure of oxygen ([1]; oxygen enriched air of 31% O2 inspired): 147 mm Hg
arterial pressure of oxygen ([1]; oxygen of 95% O2 inspired): 452 mm Hg
Compound: O=O [oxygen]
deformation at follow-up (Arthritis; after 12 months): no more deformation has been observed
outcome after 10 days (Arthritis; after 10 days): a notable recuperation takes place
time to begin of recovery (Arthritis; person, severe deformation in hands): 5 days
Depression at follow-up (Depression; after 11 months): no more Depression has been detected
outcome after 10 days (Depression; after 10 days): a notable recuperation takes place
time to begin of recovery (Depression; person, severe Depression): 5 days
limbs inflammation at follow-up (Lymphedema; after 11 months): no limbs inflammation has developed
outcome after 10 days (Lymphedema; after 10 days): a notable recuperation takes place
time to begin of recovery (Lymphedema; person, severe limbs inflammation after cancer radiotherapy): 5 days
symptoms at follow-up (Parkinson Disease; after 12 months, method No 4): no AD symptoms has developed
time to recovery (Parkinson Disease; patient, moderate conditions, method No 4: 6 l/min oxygen flow 60 min twice a day during 10 days): 5 days
use of the therapy in patients [2]: satisfactory used

Source: patent US20230062537A1, “Therapy of oxygen pulses for treating neurodegenerative disorders such as Parkinson Disease (PD), Alzheimer’s Disease (AD), Amiotrophic Lateral Sclerosis (ALS) or Motor Neuron Disease (MND) and other dementias, and Lymphedema, Arthritis and Depression” (priority 2021, published 2023)
